According to patent publication US11040963B2 (priority 2017, dated 2021):

Legend:
[1] = system: H1N1 A/New Caledonia/20/99; test: microbe, parasite or virus in culture; type: cell-based, influenza A virus; conditions: for EC50: Influenza A virus, H1N1, MDCK, 96 h, read-out: Virus neutralization assay (VNA), pEC50 H1N1 A/New Caledonia/20/99 (converted)
[2] = molecular target: HA H1 A/California/07/09 (Influenza A virus (A/California/07/2009(H1N1)), UniProt C3W5X2); test: biochemical; conditions: Competition binding (AlphaLISA), pIC50 H1 A/California/07/09
H5N1 A/Vietnam/1203/04 = test: microbe, parasite or virus in culture; type: cell-based, influenza A virus; conditions: 96 h, average of repeats; for EC50: Influenza A virus, H5N1, MDCK, read-out: Virus neutralization assay (VNA), pEC50 H5N1 A/Vietnam/1203/04, MDCK cells, 96 h, CPE by ATPlite (converted)
in vitro = conditions: dog, Cytotoxicity (pCC50) MDCK
[3] = molecular target: HA H1 A/New Caledonia/20/99 (Influenza A virus (A/New Caledonia/20/1999(H1N1)), UniProt Q6WG00); test: biochemical; conditions: Competition binding (AlphaLISA), pIC50 H1 A/New Caledonia/20/99
H1N1 A/California/07/09 = test: microbe, parasite or virus in culture; type: cell-based, influenza A virus; conditions: for EC50: Influenza A virus, H1N1, MDCK, 96 h, read-out: Virus neutralization assay (VNA), pEC50 H1N1 A/California/07/09 (converted)
[4] = molecular target: HA H5 A/Vietnam/1203/04 (Influenza A virus (A/Vietnam/1203/2004(H5N1)), UniProt Q5EP31); test: biochemical; conditions: Competition binding (AlphaLISA), pIC50 H5 A/Vietnam/1203/04

Compound	EC50 [1] [µM]	IC50 [2] [µM]	EC50 (H5N1 A/Vietnam/1203/04) [µM]	CC50 (in vitro) [µM]	IC50 [3] [µM]	EC50 (H1N1 A/California/07/09) [µM]	IC50 [4] [µM]	Virus neutralization assay (VNA), pEC50 H1N1 A/New Caledonia/20/99 [1]	Virus neutralization assay (VNA), pEC50 H5N1 A/Vietnam/1203/04 (H5N1 A/Vietnam/1203/04; MDCK cells, CPE by ATPlite)	Virus neutralization assay (VNA), pEC50 H1N1 A/California/07/09 (H1N1 A/California/07/09)
COC(=O)C(c1ccccc1)N1CCN(C(=O)c2ccc(-c3nc4ccc(OC)cc4s3)o2)CC1 (stereo not drawn) [Example 80]	0.631	0.316	> 50.1	> 50.1	0.251	1.58	1	–	–	–
COC(=O)C(c1ccccc1)N1CCN(C(=O)c2cccc(NC(=O)c3ccc(OC)cc3)c2)CC1 (stereo not drawn) [Example 81]	0.631	0.2	10	> 50.1	0.126	2	1.26	–	–	–
COc1ccc2nc(-c3cccc(C(=O)N4CCN(C(CO)c5ccccc5)CC4)c3)sc2c1 (stereo not drawn) [Example 82]	0.631	0.2	12.6	5.01	0.126	2	1	–	–	–
COc1ccc2nc(-c3cccc(C(=O)N4CCN(C(C(N)=O)c5ccccc5)CC4)c3)sc2c1 (stereo not drawn) [Example 84]	0.631	0.316	31.6	> 50.1	0.2	2.51	1.58	–	–	–
Cc1nnc(C(c2ccccc2)N2CCN(C(=O)c3cccc(-c4nc5cc(C(F)(F)F)ccc5o4)c3)CC2)o1 (stereo not drawn) [Example 86]	0.794	0.0794	31.6	31.6	0.126	0.631	3.16	–	–	–
O=C(c1cccc(-c2nc3cc(C(F)(F)F)ccc3o2)c1)N1CCN(C(c2ccccc2)c2nnc(C3(O)CNC3)o2)CC1 (stereo not drawn) [Example 87]	0.501	0.0631	39.8	> 50.1	0.0398	0.398	2.51	–	–	–
COC(=O)C(c1ccccc1)N1C[C@H]2CC[C@@H](C1)N2C(=O)c1cccc(-c2nc3ccc(OC)cc3s2)c1 (stereo partly drawn) [Example 88]	0.794	0.2	12.6	> 50.1	0.126	1	0.501	–	–	–
COC(=O)C(c1ccccc1)N1CCN(C(=O)c2cccc(-c3ncc(C(=O)N4CCOCC4)s3)c2)CC1 (stereo not drawn) [Example 89]	0.794	0.0794	15.8	> 50.1	0.0794	1.26	1.26	–	–	–
COc1ccc2nc(-c3cccc(C(=O)N4CCN(C(C(C)=O)c5ccccc5)CC4)c3)sc2c1 (stereo not drawn) [Example 90]	–	0.316	–	31.6	0.158	–	1	6.1	<4.3	5.8
COc1ccc2nc(-c3cccc(C(=O)N4CCN(C(c5ccccc5)c5ccc[nH]c5=O)CC4)c3)sc2c1 (stereo not drawn) [Example 91]	0.794	0.501	> 50.1	39.8	0.316	1.58	2.51	–	–	–
O=C(c1cccc(-c2nc3cc(C(F)(F)F)ccc3o2)c1)N1CCN(C(c2ccccc2)c2nnc(C3CNC3)o2)CC1 (stereo not drawn) [Example 92]	0.794	0.126	10	10	0.0794	3.16	3.16	–	–	–
COc1ccc2nc(-c3cccc(C(=O)N4CCN(C(C(=O)NCCN)c5ccccc5)CC4)c3)sc2c1 (stereo not drawn) [Example 93]	0.794	0.0794	7.94	15.8	0.0631	3.98	0.631	–	–	–
COC(=O)C(C)(c1ccccc1)N1CCN(C(=O)c2cccc(-c3nc4ccc(OC)cc4s3)c2)CC1 (stereo not drawn) [Example 94]	1	0.0794	7.94	2.51	0.0501	0.316	0.631	–	–	–
Cc1nnc([C@@H](c2ccccc2)N2CCN(C(=O)c3cccc(-c4cc5ccccc5cn4)c3)CC2)o1 [Example 95]	1	0.126	31.6	39.8	0.158	0.794	5.01	–	–	–
COCCNC(=O)C(c1ccccc1)N1CCN(C(=O)c2cccc(-c3nc4ccc(OC)cc4s3)c2)CC1 (stereo not drawn) [Example 97]	1	0.1	3.98	10	0.0794	1	0.631	–	–	–
COc1ccc2nc(-c3cccc(C(=O)N4CCN(C(c5ccccc5)c5noc(C)n5)CC4)c3)sc2c1 (stereo not drawn) [Example 98]	1	0.251	12.6	12.6	0.126	1.26	2.51	–	–	–
COCC(c1ccccc1)N1CCN(C(=O)c2cccc(-c3nc4ccc(OC)cc4s3)c2)CC1 (stereo not drawn) [Example 99]	1	0.251	> 50.1	> 50.1	0.158	1.58	1.26	–	–	–
COC(=O)[C@H](c1ccccc1)N1CCN(C(=O)c2cccc(-c3nc4cc(OC)ccc4o3)c2)CC1 [Example 100]	1	0.501	25.1	> 50.1	0.316	2	25.1	–	–	–
Cc1nnc(C(c2ccccc2)N2CCN(C(=O)c3cccc(-c4nc5ccncc5o4)c3)CC2)o1 (stereo not drawn) [Example 102]	1	0.2	> 50.1	> 50.1	0.251	2	12.6	–	–	–
CNC(=O)C(c1ccccc1)N1CCN(C(=O)c2cccc(-c3nc4ccc(OC)cc4s3)c2)CC1 (stereo not drawn) [Example 103]	1	0.2	15.8	31.6	0.126	2.51	1	–	–	–
CCCNC(=O)C(c1ccccc1)N1CCN(C(=O)c2cccc(-c3nc4ccc(OC)cc4s3)c2)CC1 (stereo not drawn) [Example 104]	1	0.251	10	7.94	0.2	2.51	2	–	–	–
O=C(c1cccc(-c2nc3cc(C(F)(F)F)ccc3o2)c1)N1CCN(C(c2ccccc2)c2nnco2)CC1 (stereo not drawn) [Example 107]	1	0.398	> 50.1	> 50.1	0.251	3.16	20	–	–	–
COc1ccc2nc(-c3cccc(C(=O)N4CCN(C(Cc5nnco5)c5ccccc5)CC4)c3)sc2c1 (stereo not drawn) [Example 108]	1	1.58	> 50.1	> 50.1	0.501	5.01	25.1	–	–	–
CCc1nnc(C(c2ccccc2)N2CCN(C(=O)c3cccc(-c4nc5cc(C(F)(F)F)ccc5o4)c3)CC2)o1 (stereo not drawn) [Example 109]	1.26	0.0794	25.1	10	0.158	0.501	3.98	–	–	–
Cc1nnc([C@@H](c2ccccc2)N2CCN(C(=O)c3cccc(-c4ccc5ccccc5n4)c3)CC2)o1 [Example 112]	1.26	0.501	> 5.01	7.94	0.398	1.58	6.31	–	–	–
COC(=O)[C@@H](c1ccccc1)N1CCN(C(=O)c2cccc(-c3nc4cc(C(F)(F)F)ccc4o3)c2)[C@H](C(N)=O)C1 [Example 113]	1.58	0.501	> 50.1	> 50.1	0.631	1.26	25.1	–	–	–
COC(=O)C(c1ccccc1)N1CCN(C(=O)C2CCCN(c3nc4ccc(OC)cc4s3)C2)CC1 (stereo not drawn) [Example 115]	1.26	0.251	> 50.1	3.98	0.316	2	7.94	–	–	–
Cc1nc(C(c2ccccc2)N2CCN(C(=O)c3cccc(-c4nc5cc(C(F)(F)F)ccc5o4)c3)CC2)n[nH]1 (stereo not drawn) [Example 116]	1.58	0.501	> 50.1	50.1	0.398	1.58	5.01	–	–	–
COC(=O)[C@H](c1ccccc1)N1CCN(C(=O)c2cccc(-c3nc4cc(C(F)(F)F)ccc4o3)c2)[C@@H](C)C1 [Example 117]	1.26	0.126	31.6	> 50.1	0.1	2.51	6.31	–	–	–
CNC(=O)N(Cc1ccccc1)C1CCN(C(=O)c2cccc(-c3nc4ccc(OC)cc4s3)c2)CC1 [Example 118]	1.26	0.251	31.6	2	0.316	7.94	25.1	–	–	–
